Measured values as given in patent US20220257774A1, “AROMATIC AMINE AR AHD BET TARGETING PROTEIN DEGRADATION CHIMERA COMPOUND AND USE” (HINOVA PHARMACEUTICALS INC., priority 2019, published 2022).
Where two headings read alike, the source gives them in different places.

Tested on: LNCaP/AR cells
Assay: Inhibition of the proliferation of LNCap/AR cells (CCK-8)
Type: cell-based
Settings: read-out: LNCap/AR IC50
In short: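 LNCaP/AR cells (1000/well, RPMI1640 + 10% FBS) were treated for 6 days at 37 °C with 9-point 3-fold dilutions from 10 μM final, 0.1% DMSO, in duplicate. Viability was read by CCK-8 absorbance at 450 nm after 1 h, and IC50 came from a dose-response-inhibition fit.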

[1] = 144 h, LNCaP/AR cells, 6 days culture, CCK-8

IC50 [1] [nM] | SMILES | other results
101 to 500 | Cc1cn(-c2ccc(N(CCCCCOCC(=O)N[C@H](C(=O)N3C[C@H](O)C[C@H]3C(=O)N[C@@H](C)c3ccc(-c4scnc4C)cc3)C(C)(C)C)c3cc(-c4c(C)noc4C)ccc3C)cc2)cn1 [Compound 95, (2S,4R)-1-((S)-2-(2-((5-((5-(3,5-dimethylisoxazol-4-yl)-2-methylphenyl)(4-(4-methyl-1H-imidazol-1-yl)phenyl)amino)pentyl)oxy)acetylamino)-3,3-dimethylbutyryl)-4-hydroxy-N—((S)-1-(4-(4-methylthiazol-5-yl)phenyl)ethyl)-pyrrolidinyl-2-formamide] | 
< 100 | Cc1ccc(-c2c(C)noc2C)cc1N(CCCCCOCC(=O)N[C@H](C(=O)N1C[C@H](O)C[C@H]1C(=O)N[C@@H](C)c1ccc(-c2scnc2C)cc1)C(C)(C)C)c1ccc(-n2ccnn2)c(Br)c1 [Compound 19] | 
101 to 500 | CC(=O)O[C@@H]1C[C@@H](C(=O)N[C@@H](C)c2ccc(-c3scnc3C)cc2)N(C(=O)[C@@H](NC(=O)COCCCCCN(c2ccc(-n3ccnc3C)cc2)c2cc(-c3c(C)noc3C)ccc2C)C(C)(C)C)C1 [Compound 98, (3R,5S)-1-((S)-2-(2-((5-((5-(3,5-dimethylisoxazol-4-yl)-2-methylphenyl)(4-(2-methyl-1H-imidazol-1-yl)phenyl)amino)pentyl)oxy)acetylamino)-3,3-dimethylbutyryl)-5-(((S)-1-(4-(4-methylthiazol-5-yl)phenyl)ethyl)aminoformyl)pyrrolidinyl-3-yl acetate] | 
501 to 2000 | Cc1ccc(-c2c(C)noc2C)cc1N(CCCCCNc1cc2c(cc1F)C(=O)N(C1CCC(=O)NC1=O)C2=O)c1ccc(C2(C#N)CC2)cc1 (stereo not drawn) [Compound 148, 1-(4-((5-(3,5-Dimethylisoxazol-4-yl)-2-methylphenyl)(5-((2-(2,6-dioxopiperidin-3)-6-fluoro-1,3-dicarbonylisoindolin-5))amino)pentyl)amino)phenylcyclopropanecarbonitrile] | 
101 to 500 | CC(=O)O[C@@H]1C[C@@H](C(=O)N[C@@H](C)c2ccc(-c3scnc3C)cc2)N(C(=O)[C@@H](NC(=O)COCCCCCN(c2ccc(-n3cncn3)cc2)c2cc(-c3c(C)noc3C)ccc2C)C(C)(C)C)C1 [Compound 92, (3R,5S)-1-((S)-2-(2-((5-((4-(1H-1,2,4-triazol-1-yl)phenyl)(5-(3,5-dimethylisoxazol-4-yl)-2-methylphenyl)amino)pentyl)oxy)acetylamino)-3,3-dimethylbutyryl)-5-(((S)-1-(4-(4-methylthiazol-5-yl)phenyl)ethyl)aminoformyl)pyrrolidinyl-3-yl acetate] | 

Continued, compound first:

SMILES | IC50 [1] [nM] | other results
CC(=O)O[C@@H]1C[C@@H](C(=O)N[C@@H](C)c2ccc(-c3scnc3C)cc2)N(C(=O)[C@@H](NC(=O)CCN2CCC(CN(c3ccc(-n4ccnc4)c(Br)c3)c3cc(-c4c(C)noc4C)ccc3C)CC2)C(C)(C)C)C1 [Compound 99, (3R,5S)-1-((S)-2-(3-(4-(((3-Bromo-4-(1H-imidazol-1-yl)phenyl)(5-(3,5-dimethylisoxazol-4-yl)-2-methylphenyl)amino)methyl)piperidin-1-yl)propionamide)-3,3-dimethylbutyryl)-5-(((S)-1-(4-(4-methylthiazol-5-yl)phenyl)ethyl)carbamoyl)pyrrolidine-3-yl acetate] | 501 to 2000 | 
CCN(c1ccc(C#N)c(Cl)c1)c1cc(-c2c(C)nn(CCCCCOCC(=O)N[C@H](C(=O)N3C[C@H](OC(C)=O)C[C@H]3C(=O)N[C@@H](C)c3ccc(-c4scnc4C)cc3)C(C)(C)C)c2C)ccc1C [Compound 81, (3R,5S)-1-((S)-2-(2-((5-(4-(3-((3-chloro-4-cyanophenyl)(ethyl)amino)-4-methylphenyl)-3,5-dimethyl-1H-pyrazol-1-yl)pentyl)oxy)acetamido)-3,3-dimethylbutyryl)-5-((S)-1-(4-methylthiazol-5-yl)phenyl)ethyl)carbamoyl)pyrrolidine-3-yl acetate] |  | IC50 (LNCaP/AR, 144 h): 501 to 2000 nM
Cc1ccc(-c2c(C)noc2C)cc1N(CCC1CCN(c2cc3c(cc2F)C(=O)N(C2CCC(=O)NC2=O)C3=O)CC1)c1ccc(C2(C#N)CC2)cc1 (stereo not drawn) [Compound 29, 1-(4-((5-(3,5-Dimethylisoxazol-4-yl)-2-methylphenyl)(2-(1-(2-(2,6-dioxopiperidin-3-yl)-6-fluoro-1,3-dioxoisoindolin-5-yl)piperidin-4-yl)ethyl)amino)phenyl)cyclopropane-1-carbonitrile] | > 2000 | 
Cc1ccc(-c2c(C)noc2C)cc1N(CC1CCN(CCC(=O)N[C@H](C(=O)N2C[C@H](O)C[C@H]2C(=O)N[C@@H](C)c2ccc(-c3scnc3C)cc2)C(C)(C)C)CC1)c1ccc(-n2ccnc2)c(Br)c1 [Compound 100, (2S,4R)-1-((S)-2-(3-(4-(((3-Bromo-4-(1H-imidazol-1-yl)phenyl)(5-(3,5-dimethylisoxazol-4-yl)-2-methylphenyl)amino)methyl)piperidin-1-yl)propionamide)-3,3-dimethylbutyryl)-4-hydroxy-N—((S)-1-(4-(4-methylthiazol-5-yl)phenyl)ethyl)pyrrolidine-2-formamide] | 501 to 2000 | 
CC(=O)O[C@@H]1C[C@@H](C(=O)N[C@@H](C)c2ccc(-c3scnc3C)cc2)N(C(=O)[C@@H](NC(=O)CN2CCN(CCN(c3ccc(-n4ccnc4)c(Br)c3)c3cc(-c4c(C)noc4C)ccc3C)CC2)C(C)(C)C)C1 [Compound 47, (3R,5S)-1-((S)-2-(2-(4-(2-((3-bromo-4-(1H-imidazol-1-yl)phenyl)(5-(3,5-dimethylisoxazol-4-yl)-2-methylphenyl)amino)ethyl)piperazin-1-yl)acetamido)-3,3-dimethylbutanol)-5-((S)-1-(4-methylthiazol-5-yl)phenyl)ethyl)carbamoyl)pyrrolidine-3-yl acetate] | 501 to 2000 | 
CC(=O)O[C@@H]1C[C@@H](C(=O)N[C@@H](C)c2ccc(-c3scnc3C)cc2)N(C(=O)[C@@H](NC(=O)COCCCCCN(c2ccc(-n3ccnc3)cc2)c2cc(-c3c(C)noc3C)ccc2C)C(C)(C)C)C1 [Compound 84, (3R,5S)-1-((S)-2-(2-((S-((4-(1H-imidazol-1-yl)phenyl)(5-(3,5-dimethylisoxazol-4-yl)-2-methylphenyl)amino)pentyl)oxy)acetylamino)-3,3-dimethylbutyryl)-5-(((S)-1-(4-(4-methylthiazol-5-yl)phenyl)ethyl)aminoformyl)pyrrolidinyl-3-yl acetate] | 501 to 2000 | 
Cc1ccc(-c2c(C)noc2C)cc1N(CCCC1CCN(CC(=O)N[C@H](C(=O)N2C[C@H](O)C[C@H]2C(=O)N[C@@H](C)c2ccc(-c3scnc3C)cc2)C(C)(C)C)CC1)c1ccc(-n2ccnc2)c(Br)c1 [Compound 141, (2S,4R)-1-((S)-2-(2-(4-(3-((3-bromo-4-(1H-imidazol-1-yl)phenyl)(5-(3,5-dimethylisoxazol-4-yl)-2-methylphenyl)amino)propyl)piperidin-1-yl)acetamido)-3,3-dimethylbutyryl)-4-hydroxy-N—((S)-1-(4-(4-methylthiazol-5-yl)phenyl)ethyl)tetrahydropyrrole-2-amide] | 101 to 500 | 
Cc1ccc(-c2c(C)noc2C)cc1N(CCCCCOCC(=O)N[C@H](C(=O)N1C[C@H](O)C[C@H]1C(=O)N[C@@H](C)c1ccc(-c2scnc2C)cc1)C(C)(C)C)c1ccc(-n2ccnc2)cc1 [Compound 83, (2S,4R)-1-((S)-2-(2-((5-((4-(1H-imidazol-1-yl)phenyl)(5-(3,5-dimethylisoxazol-4-yl)-2-methylphenyl)amino)pentyl)oxy)acetylamino)-3,3-dimethylbutyryl)-4-hydroxy-N—((S)-1-(4-(4-methylthiazol-5-yl)phenyl)ethyl)-pyrrolidinyl-2-formamide] |  | IC50 (LNCaP/AR cells, 6 days culture, CCK-8): < 100 nM
Cc1ccc(-c2c(C)noc2C)cc1N(CCCCCOCC(=O)Nc1cccc2c1CN(C1CCC(=O)NC1=O)C2=O)c1ccc(-n2ccnc2)c(Br)c1 (stereo not drawn) [Compound 25, 2-((5-((3-Bromo-4-(1H-imidazol-1-yl)phenyl)(5-(3,5-Dimethylisoxazol-4-yl)-2-methylphenyl)amino)pentyl)oxy)-N-(2-(2,6-dioxopiperidin-3-yl)-1-oxoisoindol-4-yl)acetamide] | > 2000 | 
Cc1ccc(-c2c(C)noc2C)cc1N(CCCCCCNc1cccc2c1CN(C1CCC(=O)NC1=O)C2=O)c1ccc(-n2ccnc2)c(Br)c1 (stereo not drawn) [Compound 118, 3-(4-((6-((3-Bromo-4-(1H-imidazol-1-yl)phenyl)(5-(3,5-dimethylisoxazol-4-yl)-2-methylphenyl)amino)hexyl)amino)-1-oxoisoindolin-2-yl)piperidine-2,6-dione] | > 2000 | 
Cc1ccc(-c2c(C)noc2C)cc1N(CCCCCOCC(=O)N[C@H](C(=O)N1C[C@H](O)C[C@H]1C(=O)N[C@@H](C)c1ccc(-c2scnc2C)cc1)C(C)(C)C)c1ccc(-n2ccnc2C)cc1 [Compound 97, (2S,4R)-1-((S)-2-(2-((5-((5-(3,5-dimethylisoxazol-4-yl)-2-methylphenyl)(4-(2-methyl-1H-imidazol-1-yl)phenyl)amino)pentyl)oxy)acetylamino)-3,3-dimethylbutyryl)-4-hydroxy-N—((S)-1-(4-(4-methylthiazol-5-yl)phenyl)ethyl)-pyrrolidinyl-2-formamide] | 101 to 500 | 
Cc1ccc(-c2c(C)noc2C)cc1N(CCC1CCN(CC(=O)N[C@H](C(=O)N2C[C@H](O)C[C@H]2C(=O)N[C@@H](C)c2ccc(-c3scnc3C)cc2)C(C)(C)C)CC1)c1ccc(-n2ccnc2)c(Br)c1 [Compound 24] | > 2000 | 
CC(=O)O[C@@H]1C[C@@H](C(=O)N[C@@H](C)c2ccc(-c3scnc3C)cc2)N(C(=O)[C@@H](NC(=O)COCCCCCN(c2ccc(-n3ccnc3)c(Cl)c2)c2cc(-c3c(C)noc3C)ccc2C)C(C)(C)C)C1 [Compound 11, (3R,5S)-1-((S)-2-(2-((5-((3-chloro-4-(1H-imidazol-1-yl)phenyl)(5-(3,5-dimethylisoxazol-4-yl)-2-methylphenyl)amino)n-pentyl)oxy)acetylamino)-3,3-dimethylbutyryl)-5-(((S)-1-(4-(4-methylthiazol-5-yl)phenyl)ethyl)formylamino)pyrrolidinyl-3-acetate] | 501 to 2000 | 
